Publication PMC6445163, “Design, synthesis, and evaluation of novel 2-phenylpropionic acid derivatives as dual COX inhibitory-antibacterial agents” (Journal of Enzyme Inhibition and Medicinal Chemistry, 2017)
Read-outs that look alike come from different tables or passages of the source. Marks after values point to notes of the source that are not given here.

What was measured:
[1] = tested on: Salmonella typhimurium TA100 (base-pair substitutions); assay: Ames MPF mutagenicity assay, TA100; format: cell-based; details: for mutagenicity classification against TA100: presence or absence of metabolic activation (S9)
Procedure: (§1) Salmonella typhimurium strains, TA98 (frameshift mutations) and TA100 (base-pair substitutions), are used in this assay. Concentration range of the compounds was between […] and 5000 µg/mL according to the previous guidelines. Compounds were prepared in six different concentrations (5, 2.5, 1.25, 0.625, 0.3125 and 0.156 mg/mL) in DMSO. Mutagenic potential was determined in absence and presence of Aroclor™-1254 induced male Sprague–Dawley rat liver microsomal enzyme (S9) mix (Xenometrix AG, Switzerland). Positive controls without S9 mix were 2-Nitrofluorene (2 µg/mL) and 4-nitroquinoline N-oxide (0.1 µg/mL) whereas 1 and 2.5 µg/mL of 2-aminoanthracene solutions were used as positive controls with S9 against TA 98 and TA100, respectively. Solvent control was prepared with 4% DMSO. At the end of the experiment, revertant bacteria dropped the pH of solution and indicator medium color was changed to yellow. Yellow wells were counted as positive and compared with the negative control. Fold induction over the negative control and fold induction over the baseline were calculated. Fold induction over the negative control is the ratio of the mean number of positive wells for the dose concentration divided by the mean number of positive wells for the zero dose (negative) control. Fold induction over the baseline is the ratio of the mean number of positive wells for the dose concentration divided by zero dose baseline. The zero dose baseline is obtained by adding one standard deviation to the mean number of positive wells of the zero dose control. Mutagenicity was determined according to the criteria from previous studies[52]^,[56]. For a value ≤3 and significant increases between two and three-fold the baselines were classified as a weak mutagen, and increases ≥ three-fold the baselines were classified as a mutagen. […] As a rule, at least two adjacent doses with significant increases or a significant increase at the highest dose level should be observed for a mutagenic compound. All doses were compared according to Student’s t-test at p < .05 for statistical significance.
(§2) Ames assay was performed to investigate the genotoxicity of compounds 6h and 6l.

COX-2 = molecular target: T1, COX-2 (Homo sapiens, UniProt P35354); assay: fluorometric COX-2 inhibitor screening kit assay; format: biochemical; details: 25 °C
T1 construct: purchased Biovision K547-100
T1 sequence (P35354 18-604): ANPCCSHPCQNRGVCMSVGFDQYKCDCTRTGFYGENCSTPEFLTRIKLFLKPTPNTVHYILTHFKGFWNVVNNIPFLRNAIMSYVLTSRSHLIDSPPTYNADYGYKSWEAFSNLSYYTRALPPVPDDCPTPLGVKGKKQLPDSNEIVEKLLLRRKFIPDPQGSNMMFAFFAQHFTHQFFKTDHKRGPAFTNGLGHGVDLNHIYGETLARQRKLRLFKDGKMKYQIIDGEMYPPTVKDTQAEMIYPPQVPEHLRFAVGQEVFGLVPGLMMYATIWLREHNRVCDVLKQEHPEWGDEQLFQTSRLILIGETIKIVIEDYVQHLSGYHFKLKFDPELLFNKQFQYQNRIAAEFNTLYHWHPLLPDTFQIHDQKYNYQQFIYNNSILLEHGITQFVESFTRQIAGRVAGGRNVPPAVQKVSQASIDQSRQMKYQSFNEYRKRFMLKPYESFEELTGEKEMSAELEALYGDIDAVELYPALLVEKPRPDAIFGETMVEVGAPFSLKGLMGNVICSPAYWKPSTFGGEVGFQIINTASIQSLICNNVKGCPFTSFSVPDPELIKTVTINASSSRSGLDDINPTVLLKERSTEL
Procedure: Inhibitory potency of the compounds against COX-1 and COX-2 enzymes was determined using fluorometric COX-1 and COX-2 inhibitor screening kits (Biovision, Zurich, Switzerland). Experimental protocol was followed as described in the guides of the supplier[47]^,[48]. All of the pipettings in the assay were performed by Biotek Precision robotic system (BioTek Instruments, Inc., Winooski, VT). […] Appropriate two points (T1 and T2) in the linear range of the plot were chosen, and the corresponding fluorescence values (RFU1 and RFU2) were obtained. The slope for all samples, including enzyme control (EC), by dividing the net ΔRFU (RFU2–RFU1) values by the time ΔT (T2–T1) were calculated by using following equation: % Relative inhibition=(Slope of EC-Slope of S/Slope of EC)×100
This initial in vitro assay was done with two concentrations (10^−3 and 10^−4 M) for all compounds. […] The IC50 value was calculated from the plots of enzyme activity against concentrations by applying regression analyses on GraphPad Prism Version 5 (GraphPad Software, La Jolla, CA).
Selectivity indexes (SI) were expressed as IC50 (COX-1)/IC50 (COX-2). Selectivity toward COX-2 decreases as the corresponding SI decreases while selectivity toward COX-1 isoform increases as the corresponding SI decreases.

[2] = tested on: NIH/3T3 mouse embryonic fibroblast cell line; assay: MTT cytotoxicity test
Procedure: (§3) NIH/3T3 cells were incubated according to the supplier’s recommendations. NIH/3T3 cells were seeded at 1 × 10^4 cells into each well of 96-well plates. MTT assay was performed as previously described[51]^,[52].
(§4) There are a number of requirements to be fulfilled for successful new drug development. […] This assay is based upon the reduction of yellow MTT dye by metabolically active eukaryotic and prokaryotic cells to form the purple formazan product. The assay is generally used to examine cell viability and to estimate cell culture growth[66]^,[67].

MTT cytotoxicity test = details: mouse, NIH/3T3 mouse embryonic fibroblast cells
Procedure: as §3, §4

[3] = tested on: Salmonella typhimurium TA98 (frameshift mutations); format: cell-based; details: for mutagenicity classification against TA98: presence/absence of metabolic activation (S9)
Procedure: as §1, §2

Compound	melting point	Revertants fold increase (over baseline) TA 100 S9+ ([1]; 0.156 mg/mL)	Revertants fold increase (over baseline) TA 100 S9+ ([1]; 0.3125 mg/mL)	Revertants fold increase (over baseline) TA 100 S9− ([1]; 0.3125 mg/mL)	Revertants fold increase (over baseline) TA 100 S9+ ([1]; 0.625 mg/mL)	Revertants fold increase (over baseline) TA 100 S9− ([1]; 0.625 mg/mL)	Revertants fold increase (over baseline) TA 100 S9+ ([1]; 1.25 mg/mL)	Revertants fold increase (over baseline) TA 100 S9− ([1]; 1.25 mg/mL)	Revertants fold increase (over baseline) TA 100 S9+ ([1]; 2.5 mg/mL)	Revertants fold increase (over baseline) TA 100 S9− ([1]; 2.5 mg/mL)	Revertants fold increase (over baseline) TA 100 S9+ ([1]; 5 mg/mL)	Revertants fold increase (over baseline) TA 100 S9− ([1]; 5 mg/mL)	mutagenicity classification against TA100 [1]	IC50 (COX-2)	fold by which IC50 against COX enzymes is lower than IC50 against NIH/3T3 cells [2]	IC50 (MTT cytotoxicity test)	Revertants fold increase (over baseline) TA 98 S9− ([3]; 0.156 mg/mL)	Revertants fold increase (over baseline) TA 98 S9+ ([3]; 0.3125 mg/mL)	Revertants fold increase (over baseline) TA 98 S9− ([3]; 0.3125 mg/mL)	Revertants fold increase (over baseline) TA 98 S9+ ([3]; 0.625 mg/mL)	also measured
COc1ccc2sc(SCc3ccc(C(C)C(=O)O)cc3)nc2c1 (stereo not shown) [Compound 6h, 2-(4-(((5-Methoxybenzo[d]thiazol-2-yl)thio)methyl)phenyl)propanoic acid]	166.5 to 168.2 °C	0.60	0.50	0.52	0.20	0.70	0.25	0.17	0.25	1.05	0.20	0.87	did not show any mutagenicity	2.96 µM	about 500 fold	≥ 1000 µM	0.56	0.52	0.56	0.70	Revertants fold increase (over baseline) TA 98 S9− ([3]; 0.625 mg/mL): 0.60; Revertants fold increase (over baseline) TA 98 S9+ ([3]; 1.25 mg/mL): 0.17; Revertants fold increase (over baseline) TA 98 S9− ([3]; 1.25 mg/mL): 0.73; Revertants fold increase (over baseline) TA 98 S9+ ([3]; 2.5 mg/mL): 1.05; Revertants fold increase (over baseline) TA 98 S9− ([3]; 2.5 mg/mL): 0.22^a; Revertants fold increase (over baseline) TA 98 S9+ ([3]; 5 mg/mL): 0.87; Revertants fold increase (over baseline) TA 98 S9− ([3]; 5 mg/mL): 0.17^a; mutagenicity classification against TA98 [3]: non-mutagenic
COc1ccc2[nH]c(SCc3ccc(C(C)C(=O)O)cc3)nc2c1 (stereo not shown) [Compound 6l, 2-(4-(((5-Methoxy-1H-benzo[d]imidazol-2-yl)thio)methyl)phenyl)propanoic acid]	175.6 to 178.4 °C	0.74	0.52	0.27^a	0.52	0.13^a	0.00^a	0.13^a	0.00^a	0.20^a	0.00^a	0.00^a	non-mutagenic	2.34 µM	about 500 fold	≥ 1000 µM	0.57	0.50	0.31^a	0.75	Revertants fold increase (over baseline) TA 100 S9− ([1]; 0.156 mg/mL): 0.53a; Revertants fold increase (over baseline) TA 98 S9+ ([3]; 0.156 mg/mL): 0.17^a; Revertants fold increase (over baseline) TA 98 S9− ([3]; 0.625 mg/mL): 0.61; Revertants fold increase (over baseline) TA 98 S9+ ([3]; 1.25 mg/mL): 0.08^a; Revertants fold increase (over baseline) TA 98 S9− ([3]; 1.25 mg/mL): 0.04a; Revertants fold increase (over baseline) TA 98 S9+ ([3]; 2.5 mg/mL): 0.00^a; Revertants fold increase (over baseline) TA 98 S9− ([3]; 2.5 mg/mL): 0.00^a; Revertants fold increase (over baseline) TA 98 S9+ ([3]; 5 mg/mL): 0.00^a; Revertants fold increase (over baseline) TA 98 S9− ([3]; 5 mg/mL): 0.04^a; mutagenicity classification against TA98 [3]: non-mutagenic
